Test results as given in ChEMBL document CHEMBL1944517, “New inhibitors of dihydroorotate dehydrogenase (DHODH) based on the 4-hydroxy-1,2,5-oxadiazol-3-yl (hydroxyfurazanyl) scaffold” (Eur J Med Chem, 2012).

These compounds were tested against Dihydroorotate dehydrogenase (quinone), mitochondrial (Rattus norvegicus, UniProt Q63707) (assay: Inhibition of dihydroorotate dehydrogenase in Wistar rat liver mitochondrial/microsomal membranes measured for 5 mins by 2,6-dichlorophenolindophenol reduction-based spectrophotometry).
Dihydroorotate dehydrogenase (quinone), mitochondrial, sequence (Q63707 whole entry): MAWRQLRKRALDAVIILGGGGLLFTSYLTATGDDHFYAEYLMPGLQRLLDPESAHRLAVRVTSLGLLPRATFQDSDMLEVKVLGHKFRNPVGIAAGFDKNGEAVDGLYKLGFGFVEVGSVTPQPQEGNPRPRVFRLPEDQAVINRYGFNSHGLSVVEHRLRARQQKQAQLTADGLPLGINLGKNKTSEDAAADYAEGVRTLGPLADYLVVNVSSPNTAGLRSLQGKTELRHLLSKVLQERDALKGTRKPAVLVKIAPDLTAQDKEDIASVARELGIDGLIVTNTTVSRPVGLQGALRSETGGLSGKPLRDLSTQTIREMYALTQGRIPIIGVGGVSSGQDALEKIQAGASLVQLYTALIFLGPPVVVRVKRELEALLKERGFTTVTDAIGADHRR
Type: cell membranes, Membrane
For `O=C(Nc1ccc(C(F)(F)F)cc1)c1nonc1O`, the IC50 was 4300 nM.
Compound `O=C(Nc1ccc(-c2ccccc2)cc1)c1nonc1O` has an IC50 of 11000 nM.
In the case of `O=C(Nc1ccccc1-c1ccccc1)c1no[nH]c1=O`, the IC50 is reported as 45000 nM.
`O=C(Nc1ccc(-c2ccc(C(F)(F)F)cc2)cc1)c1nonc1O` was tested, and the IC50 was 49000 nM.
Compound `O=C(Nc1ccc(-c2cccc(C(F)(F)F)c2)cc1)c1nonc1O` has an IC50 of 25000 nM.
Compound `O=C(Nc1c(F)cc(-c2ccccc2)cc1F)c1no[nH]c1=O` has an IC50 of 880 nM.
Compound `O=C(Nc1c(F)c(F)c(-c2ccccc2)c(F)c1F)c1no[nH]c1=O` has an IC50 of 66 nM.
`O=C(Nc1c(F)cc(-c2cccc(C(F)(F)F)c2)cc1F)c1nonc1O` was tested, and the IC50 was 870 nM.
Work on `O=C(Nc1c(F)cc(-c2ccc(C(F)(F)F)cc2)cc1F)c1nonc1O` yielded an IC50 of 2300 nM.
`O=C(Nc1c(F)c(F)c(-c2ccc(C(F)(F)F)cc2)c(F)c1F)c1no[nH]c1=O` gave an IC50 of 490 nM.
`O=C(Nc1c(F)c(F)c(-c2cccc(C(F)(F)F)c2)c(F)c1F)c1nonc1O` gave an IC50 of 120 nM.
For `O=C(Nc1c(F)c(F)c(-c2cccc(OC(F)(F)F)c2)c(F)c1F)c1no[nH]c1=O`, the IC50 was 50 nM.
